Counter-ions that a name gives are not always drawn. Residues, ends and D or L forms follow the SMILES beside them. *: point of attachment. Cbz = O=C(OCc1ccccc1)*
Legend:
[1] = target: T1, PDCL3 (Homo sapiens, UniProt Q9H2J4); assay: High throughput screening of LOPAC1280 for small molecule inhibitors of PDCL3; conditions: LOPAC1280, 1,280 pharmacologically active compounds
T1 sequence (Q9H2J4 1-239): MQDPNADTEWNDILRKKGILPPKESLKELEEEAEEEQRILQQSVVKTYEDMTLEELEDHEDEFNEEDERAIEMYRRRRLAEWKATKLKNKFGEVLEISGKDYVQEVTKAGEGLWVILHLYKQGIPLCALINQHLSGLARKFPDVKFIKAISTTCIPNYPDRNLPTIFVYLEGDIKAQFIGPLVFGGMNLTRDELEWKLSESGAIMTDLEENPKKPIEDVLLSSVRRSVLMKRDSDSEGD
Excerpt: (§1) Given that PDCL3 plays a fundamental role in maturation and folding of receptor tyrosine kinases (RTKs), such as VEGFR-2, and considering that activity of these RTKs are cornerstone of tumor growth and metastasis, it was decided to screen for small molecule inhibitors that could antagonize PDCL3 function in tumor cells. LOPAC1280 (a library of Pharmacologically Active Compounds), which is a collection of 1,280 pharmacologically active compounds, was used. The library is most commonly used to validate new drug discovery assays and characterize orphan targets. 16 lead compounds were identified as PDCL3 inhibitors and their potency and efficacy in inhibition of PDCL3 was validated. The structures of these 16 lead compounds, namely, Reserpine, DAPH, AC-93253 iodide, Emodin, Sunitinib malate, GW2974, Urapidil Hydrochloride, Mecamylamine hydrochloride, (−)-MK-801 hydrogen maleate, AGK2, Tyrphostin AG 112, Tyrphostin 23, Tyrphostin 51, I-Ome-Tyrophostin AG 538, and Isoliquiritgenin are provided herein at FIG. 14B.
as §1, with “validated. […] Chemical formulas for” for “validated. The structures of”, “these compounds” for “these 16 lead compounds, namely, Reserpine, DAPH, AC-93253 iodide, Emodin, Sunitinib malate, GW2974, Urapidil Hydrochloride, Mecamylamine hydrochloride, (−)-MK-801 hydrogen maleate, AGK2, Tyrphostin AG 112, Tyrphostin 23, Tyrphostin 51, I-Ome-Tyrophostin AG 538, and Isoliquiritgenin”, “herein in” for “herein at”

[2] = test system: VEGFR-2; assay: Cycloheximide-chase / VEGF-induced downregulation of VEGFR-2; assay type: cell-based; conditions: PAE cells, cycloheximide 20 μg/ml, 90 min
Protocol: FIG. 2A. Illustrated is the schematic of treatment of cells with cycloheximide (CHX) and VEGF. PAE cells co-expressing VEGFR-2 with empty vector (pMSCV) or PDCL3 were incubated with CHX for 90 minutes followed by stimulation with VEGF for indicated times. Whole cell lysates was blotted for VEGFR-2 and loading control protein, PLCγ1. FIG. 2B. Shown are the quantification of the half-life of mature VEGFR-2 and pre-mature VEGFR-2 based on the VEGFR-2 blot from the panel FIG. 2A. FIGS. 2C-2D. PAE cells co-expressing VEGFR-2 with empty vector (pMSCV) or PDCL3 were stimulated with VEGF for indicated times and whole cell lysates were processed as panel FIG. 2A.
PAE cells expressing VEGFR-2 alone or together with PDCL3 were serum-starved for overnight followed by incubation of cells with serum-free DMEM medium containing cycloheximide (20 μg/ml, 90 min). Cells then were stimulated with VEGF for various times to downregulate cell surface VEGFR-2. Cells were lysed and whole cell lysates was blotted for VEGFR-2 using anti-VEGFR-2 antibody. For measuring half-life of PDCL3 and HA-tagged mutant PDCL3, cells were incubated with serum-free DMEM medium containing cycloheximide (20 μg/ml) for indicated times and cells were lysed and whole cell lysates was blotted for PDCL3.

[3] = test system: VEGFR-2; assay: In vitro transcription/translation of VEGFR-2; assay type: biochemical
Protocol: FIG. 1A. HEK-293 cells expressing VEGFR-2 were transfected with different concentrations of C-terminus Myc-tagged PDCL3. After 48 hours cells were lysed and whole cell lysates (WCL) were blotted for VEGFR-2, PDCL3 and Hsp70 for loading control. Quantification of premature (newly synthesized and partially glycosylated VEGFR-2 corresponding to lower molecular weight) and mature (fully glycosylated) forms of VEGFR-2 is shown. Mean results of three independent experiments are shown. *P=0.04 and […]. FIG. 1B. Human umbilical vein endothelial cells (HUVECs) were transfected with control siRNA or PDCL3-siRNA. After 48 hours cells serum-starved for overnight followed by stimulation with VEGF for 10 minutes. Cells were lysed and whole cell lysates were blotted for phospho-Y1054-VEGFR-2, total VEGFR-2, PDCL3 and Hsp70 for loading control. FIG. 1C. Thermo-induced aggregation of VEGFR-2 was measured using PSA dye as described in the materials and method section. FIG. 1D. In vitro transcription/translation of VEGFR-2 in the absence or presence of exogenous recombinant PDCL3 was performed as described in the materials and method section and schematic of the procedure is shown. FIG. 1E. In vitro translated VEGFR-2 protein in the absence or presence of exogenous recombinant PDCL3 was blotted for VEGFR-2. FIG. 1F. […]

SMILES	identified as PDCL3 inhibitor / specifically targeting PDCL3 [1]	other results
CC12NC(Cc3ccccc31)c1ccccc12.O=C(O)/C=C/C(=O)O (single isomer, unassigned; (-)) [(−)-MK-801 hydrogen maleate, 1-Methyl-16-azatetracyclo[7.6.1.02,7.010,15]hexadeca-2,4,6,10,12,14-hexaene (2E)-2-butenedioate (1:1)]	identified as specifically targeting PDCL3	–
CC[n+]1c(/C=C/C=C2/N(C)c3ccccc3C2(C)C)sc2ccccc21.[I-] [AC-93253 iodide, 3-Ethyl-2-[(1E,3E)-3-(1,3,3-trimethyl-1,3-dihydro-2H-indol-2-ylidene)-1-propen-1-yl]-1,3-benzothiazol-3-ium iodide]	identified as specifically targeting PDCL3	–
N#C/C(=C\c1ccc(-c2cc(Cl)ccc2Cl)o1)C(=O)Nc1cccc2ncccc12 [AGK2, (2E)-2-Cyano-3-[5-(2,5-dichlorophenyl)-2-furyl]-N-(5-quinolinyl)acrylamide]	identified as specifically targeting PDCL3	–
C[C@@H]1C[C@@H]([C@H](O)CC2CC(=O)NC(=O)C2)C(=O)[C@@H](C)C1 [Cycloheximide]	–	VEGFR-2 protein synthesis [2]: inhibited VEGFR-2 protein synthesis
O=C1NC(=O)c2cc(Nc3ccccc3)c(Nc3ccccc3)cc21 [DAPH, 5,6-Dianilino-1H-isoindole-1,3(2H)-dione]	identified as specifically targeting PDCL3	–
Cc1cc(O)c2c(c1)C(=O)c1cc(O)cc(O)c1C2=O [Emodin, 1,3,8-Trihydroxy-6-methyl-9,10-anthraquinone]	identified as specifically targeting PDCL3	–
CN(C)c1cc2c(Nc3ccc4c(cnn4Cc4ccccc4)c3)ncnc2cn1 [GW2974, N4-(1-Benzyl-1H-indazol-5-yl)-N6,N6-dimethylpyrido[3,4-d]pyrimidine-4,6-diamine]	identified as specifically targeting PDCL3	–
COc1cc(C=C(C#N)C(=O)c2ccc(O)c(O)c2)cc(I)c1O [I-Ome-Tyrophostin AG 538, α-Cyano-(3-methoxy-4-hydroxy-5-iodocinnamoyl)-(3′,4′-dihydroxyphenyl)ketone]	identified as specifically targeting PDCL3	–
O=C(/C=C/c1ccc(O)cc1)c1ccc(O)cc1O [Isoliquiritgenin, (E)-1-(2,4-dihydroxyphenyl)-3-(4-hydroxyphenyl)prop-2-en-1-one]	identified as specifically targeting PDCL3	–
CC(C)C[C@@H](C=O)NC(=O)[C@H](CC(C)C)NC(=O)[C@H](CC(C)C)NC(=O)OCc1ccccc1 [MG132] (Cbz-Leu-Leu-Leu-aldehyde)	–	yield of in vitro translated VEGFR-2 [3]: this effect of PDCL3 was further augmented
CNC1(C)C2CCC(C2)C1(C)C.Cl (centres unmarked) [Mecamylamine hydrochloride, N,2,3,3-Tetramethylbicyclo[2.2.1]heptan-2-amine hydrochloride (1:1)]	identified as specifically targeting PDCL3	–
COC(=O)[C@H]1[C@H]2C[C@@H]3c4[nH]c5cc(OC)ccc5c4CCN3C[C@H]2C[C@@H](OC(=O)c2cc(OC)c(OC)c(OC)c2)[C@@H]1OC [Reserpine, Methyl (3β,16β,17α,18β,20α)-11,17-dimethoxy-18-[(3,4,5-trimethoxybenzoyl)oxy]yohimban-16-carboxylate]	identified as specifically targeting PDCL3	–
CCN(CC)CCNC(=O)c1c(C)[nH]c(/C=C2\C(=O)Nc3ccc(F)cc32)c1C.O=C(O)C[C@H](O)C(=O)O [Sunitinib malate, (2S)-2-Hydroxysuccinic acid-N-[2-(diethylamino)ethyl]-5-[(Z)-(5-fluoro-2-oxo-1,2-dihydro-3H-indol-3-ylidene)methyl]-2,4-dimethyl-1H-pyrrole-3-carboxamide (1:1)]	identified as specifically targeting PDCL3	–
N#CC(C#N)=Cc1ccc(O)c(O)c1 [Tyrphostin 23, (3,4-Dihydroxybenzylidene)malononitrile]	identified as specifically targeting PDCL3	–
N#CC(C#N)=C(N)/C(C#N)=C/c1cc(O)c(O)c(O)c1 [Tyrphostin 51, (3Z)-2-Amino-4-(3,4,5-trihydroxyphenyl)-1,3-butadiene-1,1,3-tricarbonitrile]	identified as specifically targeting PDCL3	–
N#CC(C#N)=C(N)/C(C#N)=C/c1ccc(O)cc1 [Tyrphostin AG 112, (3Z)-2-Amino-4-(4-hydroxyphenyl)-1,3-butadiene-1,1,3-tricarbonitrile]	identified as specifically targeting PDCL3	–
COc1ccccc1N1CCN(CCCNc2cc(=O)n(C)c(=O)n2C)CC1 [Urapidil Hydrochloride, 6-({3-[4-(2-Methoxyphenyl)-1-piperazinyl]propyl}amino)-1,3-dimethyl-2,4(1H,3H)-pyrimidinedione]	identified as specifically targeting PDCL3	–
